Source: patent publication US20250098679A1, “HERBICIDAL PYRIDONE DERIVATIVES” (SYNGENTA CROP PROTECTION AG, priority 2021, published 2025)

Key:
Type in all cases: in vivo
[1] = system: Amaranthus palmeri (AMAPA); test: Post-emergence Test, Amaranthus palmeri (AMAPA); design: key: 5=81-100%, 4=61-80%, 3=41-60%, 2=21-40%, 1=0-20% damage; conditions: evaluated after 13 days
How it was run: (§1)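 Spray application at 1000 g/ha unless otherwise stated. Damage was scored 13 days later as 1 (0-20%) to 5 (81-100%).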

[2] = system: Amaranthus palmeri (AMAPA); test: Pre-emergence Test, Amaranthus palmeri (AMAPA); conditions: evaluated after 13 days
[3] = system: Ipomoea hederacea (IPOHE); test: Pre-emergence Test, Ipomoea hederacea (IPOHE); conditions: evaluated after 13 days
[4] = system: Zea mays (ZEAMX); test: Pre-emergence Test, Zea mays (ZEAMX); conditions: evaluated after 13 days
[5] = system: Zea mays (ZEAMX); test: Post-emergence Test, Zea mays (ZEAMX); design: key to percentage damage caused to the plant, ZEAMX (five-point scale): 5=81-100%, 4=61-80%, 3=41-60%, 2=21-40%, 1=0-20% damage; conditions: evaluated after 13 days
How it was run: as §1

[6] = system: Amaranthus retoflexus (AMARE); test: Pre-emergence Test, Amaranthus retoflexus (AMARE); conditions: evaluated after 13 days
[7] = system: Echinochloa crus-galli (ECHCG); test: Post-emergence Test, Echinochloa crus-galli (ECHCG); design: key to percentage damage caused to the plant, ECHCG (five-point scale): 5=81-100%, 4=61-80%, 3=41-60%, 2=21-40%, 1=0-20% damage; conditions: evaluated after 13 days; for Post-emergence Test ECHCG, percentage damage caused to the plant (five-point scale): 250 g/Ha (*)
How it was run: as §1

[8] = system: Amaranthus retoflexus (AMARE); test: Post-emergence Test, Amaranthus retoflexus (AMARE); design: key to percentage damage caused to the plant, AMARE (five-point scale): 5=81-100%, 4=61-80%, 3=41-60%, 2=21-40%, 1=0-20% damage; conditions: evaluated after 13 days
How it was run: as §1

[9] = system: Setaria faberi (SETFA); test: Post-emergence Test, Setaria faberi (SETFA); design: key to percentage damage caused to the plant, SETFA (five-point scale): 5=81-100%, 4=61-80%, 3=41-60%, 2=21-40%, 1=0-20% damage; conditions: evaluated after 13 days
How it was run: as §1

[10] = system: Setaria faberi (SETFA); test: Pre-emergence Test, Setaria faberi (SETFA); conditions: evaluated after 13 days
[11] = system: Ipomoea hederacea (IPOHE); test: Post-emergence Test, Ipomoea hederacea (IPOHE); design: key to percentage damage caused to the plant, IPOHE (five-point scale): 5=81-100%, 4=61-80%, 3=41-60%, 2=21-40%, 1=0-20% damage; conditions: evaluated after 13 days
How it was run: as §1

[12] = system: Echinochloa crus-galli (ECHCG); test: Pre-emergence Test, Echinochloa crus-galli (ECHCG); conditions: evaluated after 13 days

Structure (SMILES)	percentage damage caused to the plant, AMAPA (five-point scale) ([1]; 1000 g/ha)	Pre-emergence Test AMAPA, percentage damage caused to the plant (five-point scale) ([2]; 1000 g/ha)	Pre-emergence Test IPOHE, percentage damage caused to the plant (five-point scale) ([3]; 1000 g/ha)	Pre-emergence Test ZEAMX, percentage damage caused to the plant (five-point scale) ([4]; 1000 g/ha)	percentage damage caused to the plant, ZEAMX (five-point scale) ([5]; 1000 g/ha)	Pre-emergence Test AMARE, percentage damage caused to the plant (five-point scale) ([6]; 1000 g/ha)	percentage damage caused to the plant, ECHCG (five-point scale) ([7]; 1000 g/ha)	percentage damage caused to the plant, AMARE (five-point scale) ([8]; 1000 g/ha)	percentage damage caused to the plant, SETFA (five-point scale) ([9]; 1000 g/ha)	Pre-emergence Test SETFA, percentage damage caused to the plant (five-point scale) ([10]; 1000 g/ha)	percentage damage caused to the plant, IPOHE (five-point scale) ([11]; 1000 g/ha)	Pre-emergence Test ECHCG, percentage damage caused to the plant (five-point scale) ([12]; 1000 g/ha)	Post-emergence Test AMAPA, percentage damage caused to the plant (five-point scale) ([1]; 250 g/Ha (*))	Post-emergence Test AMAPA, percentage damage caused to the plant (five-point scale) ([1]; 1000 g/ha)	Post-emergence Test ZEAMX, percentage damage caused to the plant (five-point scale) ([5]; 250 g/Ha (*))	Post-emergence Test ZEAMX, percentage damage caused to the plant (five-point scale) ([5]; 1000 g/ha)	Post-emergence Test ECHCG, percentage damage caused to the plant (five-point scale) [7]	Post-emergence Test AMARE, percentage damage caused to the plant (five-point scale) ([8]; 250 g/Ha (*))	Post-emergence Test AMARE, percentage damage caused to the plant (five-point scale) ([8]; 1000 g/ha)	Post-emergence Test SETFA, percentage damage caused to the plant (five-point scale) ([9]; 1000 g/ha)	also measured
CCOC(=O)c1c(-c2ccc(Cl)c(Cl)c2)n(CC)c(Cn2ncc3cnc(Cl)cc32)cc1=O [Compound 52, ethyl 6-[(6-chloropyrazolo[4,3-c]pyridin-1-yl)methyl]-2-(3,4-dichlorophenyl)-1-ethyl-4-oxo-pyridine-3-carboxylate]	2 (2=21-40%)	1 (1=0-20%)	0	0	0	1 (1=0-20%)	1 (1=0-20%)	0	1 (1=0-20%)	0	2 (2=21-40%)										
CCn1c(Cn2cc(C(=O)OC)cn2)cc(=O)c(C(=O)OC(C)(C)C)c1-c1ccc(Cl)c(Cl)c1 [Compound 61, tert-butyl 2-(3,4-dichlorophenyl)-1-ethyl-6-[(4-methoxycarbonyl-pyrazol-1-yl)methyl]-4-oxo-pyridine-3-carboxylate]	0	1 (1=0-20%)	0	0	0	1 (1=0-20%)	0	1 (1=0-20%)	1 (1=0-20%)	1 (1=0-20%)	0										
CCn1c(Cn2ncc(Cl)c2C)cc(=O)c(C(=O)O)c1-c1ccc(Cl)c(Cl)c1 [Compound 88, 6-[(4-chloro-5-methyl-pyrazol-1-yl)methyl]-2-(3,4-dichlorophenyl)-1-ethyl-4-oxo-pyridine-3-carboxylic acid]	2 (2=21-40%)		2 (2=21-40%)	1 (1=0-20%)	3 (3=41-60%)		2 (2=21-40%)	1 (1=0-20%)	4 (4=61-80%)	2 (2=21-40%)	2 (2=21-40%)	3 (3=41-60%)									percentage damage caused to the plant, AMAPA (five-point scale) ([1]; 250 g/Ha): 1 (1=0-20%); percentage damage caused to the plant, ZEAMX (five-point scale) ([5]; 250 g/Ha): 0; percentage damage caused to the plant, ECHCG (five-point scale) ([7]; 250 g/Ha): 3 (3=41-60%); percentage damage caused to the plant, AMARE (five-point scale) ([8]; 250 g/Ha): 1 (1=0-20%); percentage damage caused to the plant, SETFA (five-point scale) ([9]; 250 g/Ha): 0; percentage damage caused to the plant, IPOHE (five-point scale) ([11]; 250 g/Ha): 2 (2=21-40%)
CCOC(=O)c1c(C)cnn1Cc1cc(=O)c(C(=O)O)c(-c2ccc(Cl)c(Cl)c2)n1CC [Compound 122, 2-(3,4-dichlorophenyl)-6-[(5-ethoxycarbonyl-4-methyl-pyrazol-1-yl)methyl]-1-ethyl-4-oxo-pyridine-3-carboxylic acid]																					Pre-emergence Test ECHCG, percentage damage caused to the plant (five-point scale) ([12]; 250 g/Ha (*)): 0; Pre-emergence Test AMAPA, percentage damage caused to the plant (five-point scale) ([2]; 250 g/Ha (*)): 1 (1=0-20%); Pre-emergence Test IPOHE, percentage damage caused to the plant (five-point scale) ([3]; 250 g/Ha (*)): 0; Pre-emergence Test ZEAMX, percentage damage caused to the plant (five-point scale) ([4]; 250 g/Ha (*)): 0; Pre-emergence Test AMARE, percentage damage caused to the plant (five-point scale) ([6]; 250 g/Ha (*)): 0; Pre-emergence Test SETFA, percentage damage caused to the plant (five-point scale) ([10]; 250 g/Ha (*)): 1 (1=0-20%)
CCn1c(Cn2ccc(-c3nccs3)n2)cc(=O)c(C(=O)O)c1-c1ccc(Cl)c(Cl)c1 [Compound 201, 2-(3,4-dichlorophenyl)-1-ethyl-4-oxo-6-[(3-thiazol-2-ylpyrazol-1-yl)methyl]pyridine-3-carboxylic acid]		0	1 (1=0-20%)	0		0						0	0	1 (1=0-20%)	0	1 (1=0-20%)	1 (1=0-20%)	0	2 (2=21-40%)	2 (2=21-40%)	Post-emergence Test IPOHE, percentage damage caused to the plant (five-point scale) ([11]; 250 g/Ha (*)): 0; Post-emergence Test IPOHE, percentage damage caused to the plant (five-point scale) ([11]; 1000 g/ha): 2 (2=21-40%)
CCn1c(Cn2ccc(-c3cnccn3)n2)cc(=O)c(C(=O)O)c1-c1ccc(Cl)c(Cl)c1 [Compound 203, 2-(3,4-dichlorophenyl)-1-ethyl-4-oxo-6-[(3-pyrazin-2-ylpyrazol-1-yl)methyl]pyridine-3-carboxylic acid]		1 (1=0-20%)	0	1 (1=0-20%)		1 (1=0-20%)						2 (2=21-40%)	1 (1=0-20%)	0	1 (1=0-20%)	1 (1=0-20%)	1 (1=0-20%)	1 (1=0-20%)	0	1 (1=0-20%)	Post-emergence Test IPOHE, percentage damage caused to the plant (five-point scale) ([11]; 250 g/Ha (*)): 2 (2=21-40%); Post-emergence Test IPOHE, percentage damage caused to the plant (five-point scale) ([11]; 1000 g/ha): 1 (1=0-20%)
CCn1c(Cn2ccc(/C=N/OC)n2)cc(=O)c(C(=O)O)c1-c1ccc(Cl)c(Cl)c1 [Compound 204, 2-(3,4-dichlorophenyl)-1-ethyl-6-[[3-[(E)-methoxyiminomethyl]pyrazol-1-yl]methyl]-4-oxo-pyridine-3-carboxylic acid]		1 (1=0-20%)	4 (4=61-80%)	2 (2=21-40%)		1 (1=0-20%)						4 (4=61-80%)	1 (1=0-20%)	1 (1=0-20%)	2 (2=21-40%)	3 (3=41-60%)	3 (3=41-60%)	1 (1=0-20%)	2 (2=21-40%)	4 (4=61-80%)	Pre-emergence Test ECHCG, percentage damage caused to the plant (five-point scale) ([12]; 250 g/Ha (*)): 2 (2=21-40%); Pre-emergence Test AMAPA, percentage damage caused to the plant (five-point scale) ([2]; 250 g/Ha (*)): 1 (1=0-20%); Pre-emergence Test IPOHE, percentage damage caused to the plant (five-point scale) ([3]; 250 g/Ha (*)): 2 (2=21-40%); Pre-emergence Test ZEAMX, percentage damage caused to the plant (five-point scale) ([4]; 250 g/Ha (*)): 1 (1=0-20%); Pre-emergence Test AMARE, percentage damage caused to the plant (five-point scale) ([6]; 250 g/Ha (*)): 0; Post-emergence Test IPOHE, percentage damage caused to the plant (five-point scale) ([11]; 250 g/Ha (*)): 2 (2=21-40%); Post-emergence Test IPOHE, percentage damage caused to the plant (five-point scale) ([11]; 1000 g/ha): 3 (3=41-60%)
